# Assay results from US20030139424A1, “Use” (priority 2001, published 2003).
# Tested on: ob/ob mice
# Assay: Effect on food intake (and total motor activity) by single dose subcutaneous administration in ob/ob mice, operant test cage system (Eater meter)
# Assay type: in vivo, mouse
# Conditions: male ob/ob mice
# From the text: Effect on Food Intake of N,N-Dimethyl 2-[1-(benzenesulphonyl)-5-methoxy-1H-indol-3-yl]ethylamine by single dose subcutaneous administration in ob/ob mice.
# Obese (ob/ob) mouse is selected as the primary animal model for screening as this mutant mouse consumes high amounts of food resulting in a high signal to noise ratio. To further substantiate and compare efficacy data, the effect of the compounds on food consumption is also studied in wild type (C57BL/6J) mice. The amount of food consumed during 15 hours of infusion of compounds is recorded.
# Male mice (obese C57BL/6JBom-Lep^ob and lean wild-type C57B1/6JBom; Bomholtsgaard, Denmark) 8-9 weeks with an average body weight of 50 g (obese) and 25 g (lean) are used in all the studies. The animals are housed singly in cages at 23±1° C., 40-60% humidity and have free access to water and standard laboratory chow. The 12/12-h light/dark cycle is set to lights off at 5 p.m. The animals are conditioned for at least one week before start of study.
# The test compound, N,N-Dimethyl 2-[1-(benzenesulphonyl)-5-methoxy-1H-indol-3-yl]ethylamine, was dissolved in 25% Polyetylenglykol 400 (PEG 400) plus 0.1% Tween 80. +sodium actetate till pH 5. Doses of […] were used. […]
# The animals were divided into four groups containing 8 animals each and treated with vehicle plus three dosages of the test compound. Food consumption, total motor activity and water consumption were measured continuously for 22 h following start of recording in a computer-assisted operant test cage system (Eater meter). […] On the fourth day the animals were treated with test compound just before dark onset (5 pm) and data recorded cumulatively for 3 h, 6 h, 12 h and 21 h. Water consumption during 22 h was also measured by weighing the days before and after treatment.
# Animals were randomized according to body weight and treatment assigned in a cage- and room-wise order. […] Spillage at other time points were calculated proportionally to that of the 22 h spillage. The values are expressed as mean±SEM both as the change in gram from basal level and as percent of basal level. […]
structure (smiles),measurement,setting,value
"COc1ccc2c(c1)c(CCN(C)C)cn2S(=O)(=O)c1ccccc1 [N,N-Dimethyl 2-[1-(benzenesulphonyl)-5-methoxy-1H-indol-3-yl]ethylamine]",decrease of food intake,"single sc dose 10, 30, 50 mg salt/kg, at 6 h and 12 h following administration, significant, FIG. 1",15-20%
same,dose dependence of food intake effect,"single sc dose 10, 30, 50 mg salt/kg, all doses overlapped",not dose-dependent
same,approximate minimum effective dose for food intake,"single sc dose, borderline statistical significance of 15-20% inhibition",~10 mg/kg
